“Also recorded” adds a separate entry of the source.
What was measured:
[1] = molecular target: T1, rat CPT-1 (Rattus norvegicus, UniProt Q63704); assay: Carnitine palmitoyltransferase 1 (CPT-1) assay, yeast mitochondria; type: biochemical; design: % CPT-1 activity: concentration or dose not given beside the values; details: for % CPT-1 activity: % of DMSO control, mitochondria of P. pastoris expressing rat CPT-1
T1 construct: made in house; host or cells: Pichia pastoris GS115 (isolated intact mitochondria)
T1 sequence (Q63704 1-772): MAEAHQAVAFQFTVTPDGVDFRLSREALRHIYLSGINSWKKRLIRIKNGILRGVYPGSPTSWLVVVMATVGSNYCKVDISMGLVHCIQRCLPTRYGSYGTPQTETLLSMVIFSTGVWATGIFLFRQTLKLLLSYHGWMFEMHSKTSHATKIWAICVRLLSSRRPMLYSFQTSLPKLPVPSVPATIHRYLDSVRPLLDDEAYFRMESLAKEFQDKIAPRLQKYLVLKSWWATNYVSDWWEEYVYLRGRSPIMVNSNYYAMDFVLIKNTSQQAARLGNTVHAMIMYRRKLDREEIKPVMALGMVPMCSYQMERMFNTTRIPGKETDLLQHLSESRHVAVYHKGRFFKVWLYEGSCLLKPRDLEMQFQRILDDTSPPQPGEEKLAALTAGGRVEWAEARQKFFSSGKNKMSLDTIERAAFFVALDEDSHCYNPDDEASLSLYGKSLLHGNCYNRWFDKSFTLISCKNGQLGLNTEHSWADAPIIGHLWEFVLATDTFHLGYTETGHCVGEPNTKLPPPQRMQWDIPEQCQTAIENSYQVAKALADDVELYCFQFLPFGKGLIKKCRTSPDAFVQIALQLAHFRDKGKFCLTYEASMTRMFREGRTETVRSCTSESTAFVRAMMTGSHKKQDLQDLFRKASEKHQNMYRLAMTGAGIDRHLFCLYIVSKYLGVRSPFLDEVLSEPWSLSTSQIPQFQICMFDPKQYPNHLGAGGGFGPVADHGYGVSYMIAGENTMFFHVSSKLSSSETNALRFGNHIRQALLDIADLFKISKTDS
Text: The expression plasmid pRCPT-Iβ/pHW010 (provided by Gebre Woldegiorgis, Beaverton, Oreg. Published in Woldegiorgis G. et al. Biochem. Biophys. Res. Commun. 2004, 325, 660-4.) was linearized in the GAP gene promoter by digestion with AvrII and integrated into the GAPp locus of P. pastoris GS115 by electroporation. Histidine prototrophic transformants were selected on YND plates and grown on YND medium. Mitochondria were isolated by disrupting the yeast cells with glass beads as previously described.
CPT activity was assayed by the forward exchange method using L-[^3H] carnitine as previously described (Nicot, C. et al., Biochem. Biophys. Res. Comm. 2004, 325, 2745-7). In a total volume of 0.5 mL, the standard enzyme assay mixture contained 0.2 mM L-[^3H]carnitine (˜5000 dpm/nmol), 80 μM palmitoyl-CoA, 20 mM HEPES (pH 7.0), 1% fatty acid-free albumin, and 40-75 mM KCl, with or without malonyl-CoA as indicated. Reactions were initiated by addition of isolated intact yeast mitochondria. The reaction was linear up to 4 min, and all incubations were done at 30° C. for 3 min. Reactions were stopped by addition of 6% perchloric acid and were then centrifuged at 2000 rpm for 7 min. The resulting pellet was suspended in water, and the product [^3H]palmitoylcarnitine was extracted with butanol at low pH. After centrifugation at 2000 rpm for 2 min, an aliquot of the butanol phase was transferred to a vial for radioactive counting.

[2] = molecular target: T2, FASN (Homo sapiens, UniProt P49327); assay: Fatty acid synthase activity assay in SK-Br3 cells (NADPH oxidation, particle-free supernatants); type: cell-based; design: FASN activity, % of control cells / FASN activity reduced to / reduction of FASN activity: concentration or dose not given beside the values; details: for inhibition of FASN activity (in words): SK-Br3 cells treated 6, 12 and 24 hours; for FASN activity, % of control cells: SK-Br3 cells, 24 h exposure
T2 construct: endogenous in cells; host or cells: SK-Br3 breast cancer cells
T2 sequence (P49327 whole entry): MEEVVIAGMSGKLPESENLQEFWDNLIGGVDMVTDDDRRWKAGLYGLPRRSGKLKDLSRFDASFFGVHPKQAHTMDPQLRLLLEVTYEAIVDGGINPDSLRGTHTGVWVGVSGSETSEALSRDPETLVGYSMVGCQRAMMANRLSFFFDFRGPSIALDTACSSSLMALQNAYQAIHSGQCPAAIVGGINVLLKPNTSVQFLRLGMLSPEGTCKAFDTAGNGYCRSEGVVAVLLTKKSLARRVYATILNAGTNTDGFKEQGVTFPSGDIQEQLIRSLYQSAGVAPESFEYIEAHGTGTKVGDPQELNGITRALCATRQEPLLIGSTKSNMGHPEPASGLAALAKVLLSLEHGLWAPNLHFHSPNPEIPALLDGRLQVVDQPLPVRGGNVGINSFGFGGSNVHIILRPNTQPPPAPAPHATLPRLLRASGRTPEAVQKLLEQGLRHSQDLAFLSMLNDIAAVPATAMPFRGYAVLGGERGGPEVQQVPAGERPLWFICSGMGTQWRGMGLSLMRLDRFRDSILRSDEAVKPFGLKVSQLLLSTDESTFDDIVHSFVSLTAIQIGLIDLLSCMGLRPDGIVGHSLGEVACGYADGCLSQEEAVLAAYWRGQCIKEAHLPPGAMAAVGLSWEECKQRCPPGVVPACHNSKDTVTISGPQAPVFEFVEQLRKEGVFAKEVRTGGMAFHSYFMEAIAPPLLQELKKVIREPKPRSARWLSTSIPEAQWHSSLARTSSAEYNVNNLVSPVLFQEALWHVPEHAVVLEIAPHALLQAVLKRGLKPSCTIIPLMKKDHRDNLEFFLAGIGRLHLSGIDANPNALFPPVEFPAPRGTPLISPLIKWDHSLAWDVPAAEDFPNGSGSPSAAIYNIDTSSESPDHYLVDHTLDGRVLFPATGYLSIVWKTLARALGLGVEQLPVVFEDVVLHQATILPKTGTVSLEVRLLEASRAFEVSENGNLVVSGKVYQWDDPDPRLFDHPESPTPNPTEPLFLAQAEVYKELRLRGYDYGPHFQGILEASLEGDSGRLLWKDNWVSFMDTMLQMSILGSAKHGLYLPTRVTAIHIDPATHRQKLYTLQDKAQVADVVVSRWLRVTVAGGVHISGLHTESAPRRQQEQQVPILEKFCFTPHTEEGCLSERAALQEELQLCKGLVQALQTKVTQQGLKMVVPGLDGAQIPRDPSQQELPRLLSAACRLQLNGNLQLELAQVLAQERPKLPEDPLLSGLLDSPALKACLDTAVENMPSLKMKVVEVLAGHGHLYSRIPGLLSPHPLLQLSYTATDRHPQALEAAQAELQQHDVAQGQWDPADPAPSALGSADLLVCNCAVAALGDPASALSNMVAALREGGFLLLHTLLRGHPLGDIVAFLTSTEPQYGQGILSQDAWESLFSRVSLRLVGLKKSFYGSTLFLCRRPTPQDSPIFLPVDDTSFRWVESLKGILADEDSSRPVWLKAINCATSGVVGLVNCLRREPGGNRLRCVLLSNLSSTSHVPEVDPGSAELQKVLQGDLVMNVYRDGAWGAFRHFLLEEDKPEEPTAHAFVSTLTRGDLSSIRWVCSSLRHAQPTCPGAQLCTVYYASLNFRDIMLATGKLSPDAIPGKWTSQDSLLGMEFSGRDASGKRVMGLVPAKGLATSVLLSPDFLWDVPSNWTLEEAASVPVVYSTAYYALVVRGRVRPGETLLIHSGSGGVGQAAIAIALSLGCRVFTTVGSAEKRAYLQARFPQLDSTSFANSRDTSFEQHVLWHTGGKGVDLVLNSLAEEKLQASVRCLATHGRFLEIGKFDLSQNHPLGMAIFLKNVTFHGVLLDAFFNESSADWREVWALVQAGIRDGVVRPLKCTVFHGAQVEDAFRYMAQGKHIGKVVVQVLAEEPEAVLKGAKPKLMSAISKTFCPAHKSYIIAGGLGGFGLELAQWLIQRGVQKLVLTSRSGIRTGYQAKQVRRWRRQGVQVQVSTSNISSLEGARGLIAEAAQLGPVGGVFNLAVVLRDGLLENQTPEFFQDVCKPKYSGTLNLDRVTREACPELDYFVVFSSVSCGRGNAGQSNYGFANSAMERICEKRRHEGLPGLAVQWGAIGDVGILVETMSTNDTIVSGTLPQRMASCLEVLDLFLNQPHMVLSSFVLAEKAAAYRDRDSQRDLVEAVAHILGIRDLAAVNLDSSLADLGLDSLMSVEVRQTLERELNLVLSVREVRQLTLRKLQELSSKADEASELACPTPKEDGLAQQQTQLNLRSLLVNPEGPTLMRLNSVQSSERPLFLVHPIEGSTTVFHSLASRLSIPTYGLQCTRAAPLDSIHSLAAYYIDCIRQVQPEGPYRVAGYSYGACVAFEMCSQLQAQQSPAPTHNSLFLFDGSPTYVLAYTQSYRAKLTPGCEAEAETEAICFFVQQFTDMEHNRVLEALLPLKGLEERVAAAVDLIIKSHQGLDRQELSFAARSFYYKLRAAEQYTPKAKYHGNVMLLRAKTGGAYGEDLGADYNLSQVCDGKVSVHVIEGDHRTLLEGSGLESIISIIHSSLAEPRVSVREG

| Compound | stimulation of CPT-1 activity (in words) [1] | % CPT-1 activity [1] [%] | inhibition of FASN activity (in words) [2] | FASN activity, % of control cells [2] [%] | reduction of FASN activity ([2]; after 6 h of cell exposure) [%] | reduction of FASN activity ([2]; after 24 h of cell exposure) [%] |
| --- | --- | --- | --- | --- | --- | --- |
| O=C(Oc1ccc(OC(=O)c2cc(O)c(O)c(O)c2)c2ccccc12)c1cc(O)c(O)c(O)c1 [i, 1,4-bis[(3,4,5-trihydroxybenzoyl)oxy]naphthalene] | did not stimulate CPT-1 activity; also recorded: without parallel stimulation of CPT-1 activity | 90 ± 5 | inhibit FASN activity; also recorded: decreased in a time-dependent manner | 31±16 | 50 | 50 |
| O=C(Oc1cc(OC(=O)c2cc(O)c(O)c(O)c2)c2ccccc2c1)c1cc(O)c(O)c(O)c1 [f, 1,3-bis[(3,4,5-trihydroxybenzoyl)oxy]naphthalene] | did not stimulate CPT-1 activity; also recorded: without parallel stimulation of CPT-1 activity | 89 ± 4 | inhibit FASN activity; also recorded: decreased in a time-dependent manner | 10±4 | 50 | 50 |
